Columns and labels:
[1] = tested on: T cell lines primed in vitro with Der p I; test: T cell proliferation with fine map and modified Group I peptides (Example XIV); type: cell-based, human; details: for positive T cell responses, modified peptides: 18 T cell lines, affinity purified Der p I primed, FIG. 31a
Protocol: Long term T cell lines were established by stimulation of 2×10^6 PBL/ml in bulk cultures of complete medium (RPMI-1640, 2 mM L-glutamine, 100 U/ml penicillin/streptomycin, 5×10^-5 M 2-mercaptoethanol, and 10 mM HEPES supplemented with 5% heat inactivated human AB serum) with 30 μg/ml of purified native Der p I or Der p II for 5-6 days at 37° C. in a humidified 5% CO2 incubator to select for house dust mite protein allergen reactive T cells. This amount of priming antigen was determined to be optimal for the activation of T cells from house dust mite allergic patients. Viable cells were purified by LSM centrifugation and cultured in complete medium supplemented with 5 units recombinant human IL-2/ml and 5 units recombinant human IL-4/ml for up to three weeks until the cells no longer responded to lymphokines and were considered "rested". The ability of the T cells to proliferate to selected peptides, purified Der p I or Der p II, or positive (PHA) controls or negative controls (medium only) was then assessed. For assay, 2×10^4 rested cells were restimulated in the presence of 2×10^4 autologous Epstein-Barr virus (EBV)-transformed B cells (prepared as described below) (gamma-irradiated with 25,000 RADS) or with 5×10^4 autologous PBMs (gamma-irradiated with 3500 RADS), with 2-50 μg/ml of purified native Der p I or Der p II in a volume of 200 μl complete medium in duplicate or triplicate wells in 96-well round bottom plates for 3 days. Each well then received 1 μCi tritiated thymidine for 16-20 hours. The counts incorporated were collected onto glass fiber filter mats and processed for liquid scintillation counting. […] The titrations were used to optimize the dose of peptides in T cell assays.
The maximum response in a titration of each peptide is expressed as the stimulation index (S.I.). The S.I. is the counts per minute (CPM) incorporated by cells in response to peptide, divided by the CPM incorporated by cells in medium only. […] The positive results were used in calculating mean stimulation indices for each peptide for the individual patient tested.
The above procedure was followed with 18 patients in the studies using peptides derived from Der p I and Der f I (FIGS. 31a-b), and 21 patients in the studies with Der p II peptides (FIGS. 32a-b). Individual patient results were used in calculating the mean S.I. for each peptide if the patient responded to the Der p I or Der p II protein at an S.I. of 2.0 or greater and the patient responded to at least one peptide derived from a house dust mite allergen at an S.I. f 2.0 or greater. A summary of positive experiments from the patients tested is shown in FIGS. 32a and 32b and FIGS. 33a and 33b. The bars represent the positivity index. […] In parenthesis above each bar are the mean stimulation indices for each peptide or protein for the group of patients tested.
Autologous EBV-transformed cell lines were γ-irradiated with 25,000 Rad and used as antigen presenting cells in secondary proliferation assays and secondary bulk stimulations. These EBV-transformed cell lines were made by incubating 5×10^6 PBL with 1 ml of B-59/8 Marmoset cell line (ATCC CRL1612, American Type Culture Collection, Rockville, Md.) conditioned medium in the presence of 1 μg/ml phorbol 12-myristate 13-acetate (PMA) at 37° C. for 60 minutes in 12×75 mm polypropylene round-bottom Falcon snap cap tubes (Becton Dickinson Labware, Lincoln Park, N.J.). These cells were then diluted to 1.25×10^6 cells/ml in RPMI-1640 as described above except supplemented with 10% heat-inactivated fetal bovine serum and cultured in 200 μl aliquots in flat bottom culture plates until visible colonies were detected. They were then transferred to larger wells until the cell lines were established.

[2] = tested on: T cell cultures reactive with Der p I from house dust mite-allergic subjects; test: secondary T cell proliferation assay, Group I (Der p I) overlapping and candidate/unique peptides; percent of T cell reactivity; type: cell-based, human; details: patient 1733; for T cell stimulation index (S.I.): highest S.I. ≥2.0 recorded
Source text: To determine whether a peptide (candidate peptide) or a combination of candidate peptides are likely to comprise a sufficient percentage of the T cell reactivity of house dust mite protein allergens, to induce T cell nonresponsiveness in a substantial percentage of a population of individuals sensitive to house dust mite allergen, an algorithm can be used. In accordance with one such algorithm, a set of overlapping peptides is produced by systematically dividing the protein allergen(s) of interest into al least two overlapping peptide regions of desired lengths (e.g., of about 12-30 amino acid residues in length, preferably not longer than about 25 amino acid residues in length with about 5-15 amino acid residues of overlap). This division into peptide regions can be arbitrary, can be made according to an algorithm, or can be wholly or partially based on regions of house dust mite Group I and/or Group II protein allergens known to comprise at least one T cell epitope. Preferably, at least 50% of the entire house dust mite protein allergen sequence and more preferably, the entire house dust mite protein allergen sequence is divided into two or more peptides. A human T cell stimulation index is determined for each of the peptides in an in vitro T cell proliferation assay as described herein for each individual tested in a population of individuals sensitive to the protein antigen. For example both WO93/08279 and WO94/24281 disclose T cell studies with overlapping peptides derived from Der p I, Der p II, Der f I and Der f II. A candidate peptide or combination of candidate peptides is selected based, at least in part, on the mean human T cell stimulation index of the candidate peptide in the set of peptides tested and the positivity index of the candidate peptide in the set of peptides tested (see, FIGS. 3 and 4). The human T cell stimulation index for the candidate peptide(s) is summed. For each individual, the human T cell stimulation index for the candidate peptide(s) is divided by the sum of the human T cells stimulation indices of the remaining peptides in the set of peptides tested to determine a percent of T cell reactivity as shown below:
Alternatively, the presence of T cell epitopes in the candidate peptide dependent on amino acids residues in an overlapping peptide located at either the N-terminus or C-terminus of the candidate peptide in the amino acid sequence of the protein antigen, but which epitopes are not present in the candidate peptide can be considered in calculating the percent of T cell reactivity in the candidate peptide by use of the following formula: [formula]
In this formula, "NT flanking peptide" refers to a peptide which comprises amino acid residues which overlap with amino acid residues located at the N-terminus of the candidate peptide in the amino acid sequence of the protein antigen from which the peptide is derived; "CT flanking peptide" refers to a peptide which comprises amino acid residues which overlap with amino acid residues located a the C-terminus of the candidate peptide in the amino acid sequence of the protein antigen from which the peptide is derived. In this calculation stimulation indices for the candidate peptide, the N-terminal flanking peptide and the C-terminal flanking peptide are added and divided by the sum total of the stimulation indices for the entire set of overlapping peptides obtain a percent of T cell reactivity for the candidate peptide. If a combination of two or more candidate peptides is selected each of which contains amino acid residues which overlap, this calculation cannot be used to determine a percent of T cell reactivity for each candidate peptide separately. However, a total percent of T cell reactivity for the combination of candidate peptides can be obtained. In this situation, the stimulation indices for all of the candidate peptides which overlap is included in the calculation. […]

Substance | T cell response, Group I peptides ([1]; FIGS. 31a-b) | T cell stimulation index (S.I.) [2] | positivity index, comparison ([1]; FIGS. 31a-b) | positive T cell responses, modified peptides [1] | estimated range of T cell reactivity (% reactivity of peptide) ([2]; of total reactivity of the Der p I protein)
DF I-22.2: VAATESAYLAYRNTSLDLSEQELVD, amino acid residues 40-64 of Der f I | positive responses | – | – | – | –
DP I-1: Der p I peptide, amino acid residues 1-20 (TNACSINGNAPAEIDLRQMR) | positive response | – | – | – | –
DP I-3: Der p I peptide (TVTPIRMQGGCGSCWAFSGVAATESAYLA) | – | 3.9 | – | – | –
DP I-21.2: Der p I peptide; unique peptide (SINGNAPAEIDLRQMRTVTPIRMQ) | positive response | 3.6 | higher positivity index then either of the overlapping peptides, DP I-1 and DP I-2 | – | –
DP I-23.31: modified Der p I peptide; unique peptide (DEEGVVQESYYRYVAREQSCRRPNAE) | positive T cell studies | 5.7 | – | all eighteen T cell lines responded positively | –
DP I-26.6: modified Der p I peptide; unique peptide (DEGIKDLDAFRHYDGRTIIQRDNGYE) | positive T cell studies | 5.0 | – | all eighteen T cell lines responded positively | 12.3%-24
